Assay: method code SF-AS, from DOI: 10.1248/cpb.39.1736, PMID: 1777927

| SMILES | logP |
| --- | --- |
| CC(=O)c1ccc2cc(O)c(O)cc2c1 | 2.32 |
| CCCCCCNC(=O)C=Cc1ccc(O)c(O)c1 | 3.37 |
| O=C(/C=C/c1ccc(O)c(O)c1)CCCCCO | 1.67 |
| CCCC(=O)C=Cc1ccc(O)c(O)c1 | 2.61 |
| COc1ccc(CNC(=O)C=Cc2ccc(O)c(O)c2)cc1OC | 1.99 |
| CCCCOC(=O)/C=C/c1ccc(O)c(O)c1 | 3.53 |
| CCCCCC(O)c1ccc(O)c(O)c1 (stereo not drawn) | 2.32 |
| CCCCCCNC(=O)c1ccc(O)c(O)c1 | 2.71 |
| O=C(/C=C/c1ccc(O)c(O)c1)NCCc1ccccc1 | 2.72 |
| CCCCNC(=O)c1ccc2cc(O)c(O)cc2c1 | 2.72 |
| CCCCC=Cc1ccc(O)c(O)c1 | 3.82 |
| CCc1ccc2cc(O)c(O)cc2c1 | 3.25 |
| O=C(/C=C/c1ccc(O)c(O)c1)NCc1ccccc1 | 2.48 |
| CCOc1ccc2cc(O)c(O)cc2c1 | 2.7 |
| COc1ccc(NC(=O)/C=C/c2ccc(O)c(O)c2)cc1OC | 2.3 |
| COc1ccc(CCNC(=O)/C=C/c2ccc(O)c(O)c2)cc1OC | 2.07 |
| CCCCc1ccc(O)c(O)c1 | 2.96 |
| CCCCCCNC(=O)/C=C/Oc1ccc(O)c(O)c1 | 3.36 |
